Reference: patent publication US20240277736A1, “USE OF PSILOCYBIN IN THE TREATMENT OF NEUROLOGICAL BRAIN INJURY AND MIGRAINES” (priority 2020, published 2024)
“Also recorded” adds a separate entry of the source.

How the values were obtained:
[1] = tested on: primary cortical neuronal culture (PCN); experiment: Glutamate neurotoxicity in primary cortical neuronal culture, MAP2 immunostaining; conditions: Glu 100 µM
[2] = Body weight of TBI mice on PID21; type: in vivo, CD1 mice; conditions: for body weight: measured on PID21
[3] = Deaths during surgery or post-TBI drug treatment; type: in vivo, CD1 mice; conditions: intranasal, day 4 to day 8 after CCI
[4] = target: 5-HT2A receptor (Homo sapiens, UniProt P28223); conditions: cited from earlier work
[5] = target: T1, 5-HT1A (Homo sapiens, UniProt P08908); conditions: cited from earlier work
T1 sequence (P08908 1-422): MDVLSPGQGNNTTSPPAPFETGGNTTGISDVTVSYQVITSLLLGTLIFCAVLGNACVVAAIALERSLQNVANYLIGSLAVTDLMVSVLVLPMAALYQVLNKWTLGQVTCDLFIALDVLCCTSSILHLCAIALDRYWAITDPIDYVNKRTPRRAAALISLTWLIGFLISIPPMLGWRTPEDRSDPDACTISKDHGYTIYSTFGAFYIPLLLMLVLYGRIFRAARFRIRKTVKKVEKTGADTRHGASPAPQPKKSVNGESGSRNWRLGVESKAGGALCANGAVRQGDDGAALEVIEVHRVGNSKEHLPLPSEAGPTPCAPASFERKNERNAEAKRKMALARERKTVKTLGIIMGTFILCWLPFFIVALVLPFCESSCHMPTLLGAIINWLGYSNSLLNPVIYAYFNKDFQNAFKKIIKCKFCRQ

[6] = tested on: cluster headache (CH); conditions: low-dose psilocybin; cited from earlier work
[7] = tested on: TBI mice; experiment: Morris water maze test in a mouse model of traumatic brain injury (controlled cortical impact)
[8] = high dose Psilocybin, day 4 to day 8, PID 10, 14 and 21

Sequence of 5-HT2A receptor (P28223 whole entry): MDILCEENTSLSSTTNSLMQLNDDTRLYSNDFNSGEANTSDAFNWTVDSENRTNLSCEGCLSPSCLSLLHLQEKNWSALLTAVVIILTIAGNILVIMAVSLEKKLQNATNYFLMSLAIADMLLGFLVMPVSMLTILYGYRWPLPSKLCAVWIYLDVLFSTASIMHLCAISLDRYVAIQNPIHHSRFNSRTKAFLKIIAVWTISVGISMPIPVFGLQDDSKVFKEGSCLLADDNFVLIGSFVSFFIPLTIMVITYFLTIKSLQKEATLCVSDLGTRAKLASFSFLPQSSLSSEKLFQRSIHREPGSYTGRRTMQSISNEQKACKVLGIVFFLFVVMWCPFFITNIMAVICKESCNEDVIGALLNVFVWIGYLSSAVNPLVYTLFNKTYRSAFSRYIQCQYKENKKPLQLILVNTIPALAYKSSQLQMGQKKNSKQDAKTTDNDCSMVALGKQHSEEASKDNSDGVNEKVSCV

SMILES | Effect on MAP2 immunoreactivity (MAP2-ir) vs. vehicle ([1]; 48 hrs) | Body weight (in words) ([2]; PID21) | body weight ([2]; Psi-H (high dose)) [g] | body weight ([2]; Psi-L (low dose)) [g] | Animal deaths during post-TBI drug treatment [3] | Agonist activity at 5-HT2A receptor [4] | Agonist activity at 5-HT1A [5] | Effect on cluster headache [6] | Antagonism of glutamate-mediated reduction of MAP2 immunoreactivity (neuronal loss) ([1]; PSI 100 nM or 1 μM, n=5-6 per group) | No. of crossing (average number of platform crossings) ([7]; Psi-H (high dose), Day 3 (PID3, before drug treatment)) | No. of crossing (average number of platform crossings) ([7]; Psi-H (high dose, i.n. day 4 to day 8 after CCI), Day 10) | No. of crossing (average number of platform crossings) ([7]; Psi-H (high dose, i.n. day 4 to day 8 after CCI), Day 14) | No. of crossing (average number of platform crossings) ([7]; Psi-H (high dose, i.n. day 4 to day 8 after CCI), Day 21) | No. of crossing (average number of platform crossings) ([7]; Psi-L (low dose), Day 3 (PID3, before drug treatment)) | No. of crossing (average number of platform crossings) ([7]; Psi-L (low dose, i.n. day 4 to day 8 after CCI), Day 10) | No. of crossing (average number of platform crossings) ([7]; Psi-L (low dose, i.n. day 4 to day 8 after CCI), Day 14) | No. of crossing (average number of platform crossings) ([7]; Psi-L (low dose, i.n. day 4 to day 8 after CCI), Day 21) | Average number of platform crossings in TBI mice (in words) [7, 8] | Time in the target area in TBI mice (in words) [7, 8] | Cognitive function in TBI mice (Morris water maze) ([7]; i.n. starting 4 days after TBI for 5 days)
N[C@@H](CCC(=O)O)C(=O)O [Glu, glutamate] | significantly reduced |  |  |  |  |  |  |  |  |  |  |  |  |  |  |  |  |  |  | 
CN(C)CCc1c[nH]c2cccc(OP(=O)(O)O)c12 [Psilocybin, 4-phosphoryloxy-N,N-dimethyltryptamine] |  | did not significantly alter | 34.7 ± 0.87 | 35.71 ± 0.68 | No animal died | strong agonist | moderate agonist | can prevent | not significantly altered; also recorded: non-significant trend; also recorded: not significantly antagonized; also recorded: did not significantly alter | 4.43 ± 0.69 | 6.00 ± 0.85 | 6.00 ± 0.44 | 6.00 ± 0.66 | 3.57 ± 0.90 | 4.14 ± 0.51 | 4.43 ± 0.61 | 3.29 ± 0.57 | significantly increased | significantly increased | significantly improved
